Biological target: P. falciparum apicoplast DNA polymerase (Pf-apPOL) (Plasmodium falciparum, UniProt Q8ILY1)
Test: Fluorescence-based high-throughput DNA polymerase assay (molecular beacon), primary screen and dose-response;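 for % inhibition Apol 40': compound concentration given in µM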
Assay type: biochemical
Settings: for DNA Pol: 90 min, 10 µM
Protocol: The HT assay employs a molecular beacon, a stem-loop DNA template with a Cy3 dye and the Black Hole Quencher on the 3′ and 5′ ends of the DNA, respectively. Pf-apPOL concentration is based on a calculated absorptivity of ε280 = 56750 M^−1 cm^−1. Reactions were carried out at 25 °C, using Corning 3575 […] (well-volume, 20 µL). Assays testing for compound inhibition composed of reaction buffer (pH 7.9 in 50 mM potassium acetate, 20 mM Tris-acetate and 10 mM magnesium acetate), Pf-apPOL (20 nM), DNA substrate (20 nM), dNTPs (6 µM), and compound (10 µM in DMSO). The DNA and nucleotide substrates (dNTPs) were at concentrations of 20 nM and 6 µM, respectively, in the assay. Pf-apPOL was incubated in the reaction buffer with dNTPs and the compound of interest (10 µM, in the assay) at 25 °C for 10 min. The DNA substrate was then added and the reaction was allowed to proceed for 90 min at 25 °C.
Each assay plate contained 16 negative controls (no Pf-apPOL, DMSO present) and 16 positive controls (Pf-apPOL present, no DMSO). The fluorescence of each well was determined using a BioTek Synergy Neo fluorescence plate reader using excitation and emission wavelengths of 555 and 570 nm, respectively.
In the above, Min is the average of fluorescence emission of the negative controls (substrate only), Max the average fluorescence emission from the positive controls (enzyme + substrate), and Test the emission from the assays in the presence of compounds (enzyme + compound + substrates). […] […] The IC50 of each compound was determined using Equation (2): (2) IC50= Vmax/(1+ (I/IC50)^n)
In the above, n measures cooperativity, with n > 1 indicating synergistic binding of more than a single molecule of the compound.
To identify apPOL inhibitors we utilised our previously developed high-throughput DNA polymerase assay. The HT assay is based on a molecular beacon DNA template that forms a stem-loop with a Cy3 dye and the Black Hole Quencher on the 3′ and 5′ ends of the DNA, respectively. DNA polymerase activity extends an annealed primer through the stem region, displacing the fluorophore from the quencher, thereby increasing its fluorescence (Figure 1(A)). The assay accurately recapitulates the kinetic behaviour of apPOL, as measured through more conventional low-throughput gel-based assays. The Z′ factor for the assay described here was 0.9 across all plates (data not shown).
Figure 1. High-throughput screening. (A) The fluorescent-based DNA polymerase assay used to screen the compound libraries. The DNA template strand is a hairpin loop with a primer annealed to the loop. The 3’ end of the primer is 11 bases away from the 6 bp duplex. Strand displacement activity of the DNA polymerase separates the Cy3 dye from the Black hole quencher leading to an increase in fluorescent signal. (B) The high-throughput assay workflow. The DNA polymerase is incubated with […] compound for 10 min prior to addition of the hairpin substrate. The reaction is quenched at 3 different time points and the fluorescent signal is measured and % inhibition is determined using the provided equation.

[1] = 'DNA Pol' of the 186 hits list (screen value)
[2] = primary screen value, "DNA Pol"

Sequence of P. falciparum apicoplast DNA polymerase (Pf-apPOL) (Q8ILY1 entry or part of it): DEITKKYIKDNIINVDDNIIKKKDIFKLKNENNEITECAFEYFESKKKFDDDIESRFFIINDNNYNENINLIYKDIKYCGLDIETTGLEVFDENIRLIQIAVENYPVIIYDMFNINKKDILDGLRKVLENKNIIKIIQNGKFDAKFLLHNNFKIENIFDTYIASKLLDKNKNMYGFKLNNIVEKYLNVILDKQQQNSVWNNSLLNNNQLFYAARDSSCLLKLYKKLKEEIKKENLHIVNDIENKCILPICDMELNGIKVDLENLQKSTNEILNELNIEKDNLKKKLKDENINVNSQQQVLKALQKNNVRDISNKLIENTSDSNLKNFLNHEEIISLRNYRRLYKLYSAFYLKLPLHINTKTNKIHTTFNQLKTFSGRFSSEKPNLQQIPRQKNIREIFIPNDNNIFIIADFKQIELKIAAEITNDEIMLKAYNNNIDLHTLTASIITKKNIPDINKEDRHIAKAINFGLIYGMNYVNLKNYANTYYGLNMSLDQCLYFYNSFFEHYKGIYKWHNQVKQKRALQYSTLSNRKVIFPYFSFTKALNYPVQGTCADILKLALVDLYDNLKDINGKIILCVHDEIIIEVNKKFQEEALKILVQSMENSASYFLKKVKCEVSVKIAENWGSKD

O=C1Nc2ccc(I)cc2C1=Cc1cc(Br)c(O)c(Br)c1 [Molecule 27, Ic1ccc2c(c1)C(=Cc1cc(Br)c(c(c1)Br)O)C(=O)N2]
DNA Pol [1]: 52
% inhibition Apo pol 10' (DRC-1, conc 2.5): -2.766%
% inhibition Apo pol 10' (DRC-1, conc 5): 14.7903%
% inhibition Apo pol 10' (DRC-1, conc 10): 55.8319%
% inhibition Apo pol 10' (DRC-1, conc 20): 68.6495%
% inhibition Apo pol 10' (DRC-1, conc 40): 74.9605%
% inhibition Apo pol 10' (DRC-1, conc 80): 94.5024%
% inhibition Apol 90' (DRC-1, conc 2.5): -5.207%
% inhibition Apol 90' (DRC-1, conc 5): 5.358%
% inhibition Apol 90' (DRC-1, conc 10): 51.0216%
% inhibition Apol 90' (DRC-1, conc 20): 63.6894%
% inhibition Apol 90' (DRC-1, conc 40): 72.1753%
% inhibition Apol 90' (DRC-1, conc 80): 93.708%
% inhibition apPOL 180' (DRC-1, conc 2.5): -6.922%
% inhibition apPOL 180' (DRC-1, conc 5): 0.7186%
% inhibition apPOL 180' (DRC-1, conc 10): 40.1564%
% inhibition apPOL 180' (DRC-1, conc 20): 53.0871%
% inhibition apPOL 180' (DRC-1, conc 40): 65.7742%
% inhibition apPOL 180' (DRC-1, conc 80): 93.2975%
% inhibition Apo pol 5' (DRC-2, conc 2.5): -1.67%
% inhibition Apo pol 5' (DRC-2, conc 5): 2.85%
% inhibition Apo pol 5' (DRC-2, conc 10): 38%
% inhibition Apo pol 5' (DRC-2, conc 20): 54%
% inhibition Apo pol 5' (DRC-2, conc 40): 54%
% inhibition Apo pol 5' (DRC-2, conc 80): 54%
% inhibition Apo pol 5' (DRC-2, concentration 20): 54%
% inhibition Apo pol 5' (DRC-2, concentration 40): 54%
% inhibition Apo pol 5' (DRC-2, concentration 80): 54%
% inhibition Apol 40' (DRC-2, conc 2.5): 0.385%
% inhibition Apol 40' (DRC-2, conc 5): 11%
% inhibition Apol 40' (DRC-2, conc 10): 48%
% inhibition Apol 40' (DRC-2, conc 20): 68%
% inhibition Apol 40' (DRC-2, conc 40): 71%
% inhibition Apol 40' (DRC-2, conc 80): 72%
% inhibition Apol 40' (DRC-2, concentration 5): 11%
% inhibition Apol 40' (DRC-2, concentration 10): 48%
% inhibition Apol 40' (DRC-2, concentration 80): 72%
% inhibition ApPOL 90' (DRC-2, conc 2.5): 2.27%
% inhibition ApPOL 90' (DRC-2, conc 5): 11%
% inhibition ApPOL 90' (DRC-2, conc 10): 48%
% inhibition ApPOL 90' (DRC-2, conc 20): 70%
% inhibition ApPOL 90' (DRC-2, conc 40): 74%
% inhibition ApPOL 90' (DRC-2, conc 80): 76%
% inhibition ApPOL 90' (DRC-2, concentration 5): 11%
% inhibition ApPOL 90' (DRC-2, concentration 10): 48%
% inhibition ApPOL 90' (DRC-2, concentration 80): 76%
% inhibition apPOL 180' (DRC-2, conc 2.5): 0.56%
% inhibition apPOL 180' (DRC-2, conc 5): 6%
% inhibition apPOL 180' (DRC-2, conc 10): 40%
% inhibition apPOL 180' (DRC-2, conc 20): 67%
% inhibition apPOL 180' (DRC-2, conc 40): 72%
% inhibition apPOL 180' (DRC-2, conc 80): 76%
% inhibition apPOL 180' (DRC-2, concentration 40): 72%
% inhibition apPOL 180' (DRC-2, concentration 80): 76%
DNA Pol [2]: 52

CN(C)C=C1SCc2ccccc2C1=O [Molecule 77]
IC50 (supplemental file 2, sheet IC50 nontoxic compounds, Pf-apPOL): 23.7 µM

Cc1cc(C)c2c(c1)C1C=CCC1C(c1ccc(C(=O)O)cc1)N2 (stereo not drawn) [Molecule 102, Cc1cc(C)c2c(c1)C1C=CCC1C(N2)c1ccc(cc1)C(=O)O]
DNA Pol [1]: 60
% inhibition Apo pol 10' (DRC-1, conc 2.5): 46.2676%
% inhibition Apo pol 10' (DRC-1, conc 5): 62.6778%
% inhibition Apo pol 10' (DRC-1, conc 10): 76.4739%
% inhibition Apo pol 10' (DRC-1, conc 20): 82.8067%
% inhibition Apo pol 10' (DRC-1, conc 40): 91.6956%
% inhibition Apo pol 10' (DRC-1, conc 80): 93.5405%
% inhibition Apol 90' (DRC-1, conc 2.5): 14.3309%
% inhibition Apol 90' (DRC-1, conc 5): 28.3959%
% inhibition Apol 90' (DRC-1, conc 10): 47.4171%
% inhibition Apol 90' (DRC-1, conc 20): 62.2374%
% inhibition Apol 90' (DRC-1, conc 40): 86.2676%
% inhibition Apol 90' (DRC-1, conc 80): 94.9161%
% inhibition apPOL 180' (DRC-1, conc 2.5): 1.778%
% inhibition apPOL 180' (DRC-1, conc 5): 12.6672%
% inhibition apPOL 180' (DRC-1, conc 10): 32.4501%
% inhibition apPOL 180' (DRC-1, conc 20): 53.0918%
% inhibition apPOL 180' (DRC-1, conc 40): 83.5057%
% inhibition apPOL 180' (DRC-1, conc 80): 95.0431%
% inhibition Apo pol 5' (DRC-2, conc 2.5): 40%
% inhibition Apo pol 5' (DRC-2, conc 5): 51%
% inhibition Apo pol 5' (DRC-2, conc 10): 55%
% inhibition Apo pol 5' (DRC-2, conc 20): 58%
% inhibition Apo pol 5' (DRC-2, conc 40): 59%
% inhibition Apo pol 5' (DRC-2, conc 80): 58%
% inhibition Apo pol 5' (DRC-2, concentration 2.5): 40%
% inhibition Apo pol 5' (DRC-2, concentration 20): 58%
% inhibition Apo pol 5' (DRC-2, concentration 40): 59%
% inhibition Apo pol 5' (DRC-2, concentration 80): 58%
% inhibition Apol 40' (DRC-2, conc 2.5): 34%
% inhibition Apol 40' (DRC-2, conc 5): 50%
% inhibition Apol 40' (DRC-2, conc 10): 59%
% inhibition Apol 40' (DRC-2, conc 20): 71%
% inhibition Apol 40' (DRC-2, conc 40): 76%
% inhibition Apol 40' (DRC-2, conc 80): 75%
% inhibition Apol 40' (DRC-2, concentration 10): 59%
% inhibition Apol 40' (DRC-2, concentration 80): 75%
% inhibition ApPOL 90' (DRC-2, conc 2.5): 28%
% inhibition ApPOL 90' (DRC-2, conc 5): 47%
% inhibition ApPOL 90' (DRC-2, conc 10): 58%
% inhibition ApPOL 90' (DRC-2, conc 20): 73%
% inhibition ApPOL 90' (DRC-2, conc 40): 80%
% inhibition ApPOL 90' (DRC-2, conc 80): 79%
% inhibition ApPOL 90' (DRC-2, concentration 10): 58%
% inhibition apPOL 180' (DRC-2, conc 2.5): 19%
% inhibition apPOL 180' (DRC-2, conc 5): 40%
% inhibition apPOL 180' (DRC-2, conc 10): 54%
% inhibition apPOL 180' (DRC-2, conc 20): 75%
% inhibition apPOL 180' (DRC-2, conc 40): 83%
% inhibition apPOL 180' (DRC-2, conc 80): 83%
% inhibition apPOL 180' (DRC-2, concentration 5): 40%
% inhibition apPOL 180' (DRC-2, concentration 20): 75%
% inhibition apPOL 180' (DRC-2, concentration 40): 83%
% inhibition apPOL 180' (DRC-2, concentration 80): 83%
DNA Pol [2]: 60

Source: paper PMC9090415, “Discovery of small molecule inhibitors of Plasmodium falciparum apicoplast DNA polymerase” (Journal of Enzyme Inhibition and Medicinal Chemistry, 2022)
